Assay results: patent publication US7112698B2, “4-(c2-6alkoxy)-substituted chalcones as therapeutic agents” (Spear Therapeutics Limited, priority 2001, dated 2006)
Read-outs that look alike come from different tables or passages of the source.

What was measured:
MCF-7 cells = experiment: MCF-7 cell line (non-induced) cytotoxicity assay, MTT; format: cell-based; conditions: Homo sapiens, MCF7
From the text: (§1) CYP1A1 and CYP1B1 enzyme activity is induced by TCDD (tetrachlorodibenzodioxin (Dioxin)) in breast tumour MCF-7 cells (see, e.g., Sutter et al., 1994). CYP1B1 is expressed in a variety of human tumours, and can be inducible by TCDD in numerous cell types including breast, liver, lung, and kidney (see, e.g., Murray et al., 1997). CYP1B1 is known to catalyse estradiol 4-hydroxylation metabolism. In untreated culture, the constitutive rate of estradiol E2 metabolism in MCF-7 cells is minimal. However, treatment with TCDD causes a marked increase in the rate of E2 metabolism (see, e.g., Spink et al., 1994). […] Therefore the cytotoxicity of compounds in non-induced MCF-7 cells correlates to the cytotoxicity of compounds against normal cells, whilst the cytotoxicity of compounds against TCDD-induced MCF-7 cells correlates to the cytotoxicity of compounds against real tumours that express CYP1B1.
(§2) The cytotoxicity of compounds in non-induced MCF-7 cells correlates to the cytotoxicity of compounds against normal cells, whilst the cytotoxicity of compounds against TCDD-induced MCF-7 cells correlates to the cytotoxicity of compounds against real tumours that express CYP1B1.
(§3) Cells were maintained in RPMI 1640 with Glutamax 1 (Life Technologies) with 10% (v/v) heat inactivated foetal calf serum (Hybrimax. Sigma), at 37° C., 5% CO2/95% air with 100% humidity and passaged using trypsin/EDTA. 1×10^3 cells were plated out in 100 μl medium per well of 96-well flat-bottomed plates (Fisher). After 4 hours to allow adherance, 100 μl of medium containing TCDD (British Greyhound Chromatography; 10 μM stock in DMSO (dimethylsulfoxide)) or medium with 0.2% (v/v) DMSO as control was added to each well to give a final concentration of 10 nM TCDD, 0.1% (v/v) DMSO, for 24 hours to allow maximal CYP expression. The medium was then carefully aspirated and 100 μl fresh medium added. Within 30 minutes test compound was added in quadruplicate in 100 μl medium (with or without inhibitors) at double the final concentration from 100 mM stock in DMSO to give a final concentration of not more than 0.1% (v/v) DMSO, or DMSO solvent alone at 0.1% (v/v) as control. The cells were then allowed to grow on for 96 hours to give 80–90% confluence in the control wells. 50 μl MTT (Thiazol blue, Sigma) at 2 mg/ml in Dulbecco's phosphate buffered saline-A, was then added to each well for 3 hours. All medium was aspirated, then the formazan product generated by viable cells was solubilized with 150 μl DMSO. Plates were vortexed and the absorbance at 540 nm determined using a plate reader. Results were expressed as the percentage of 100% (control) proliferation and the IC50 calculated using the line of best fit for a sigmoidal dose response curve with variable slope using Graphpad Prizm software. All determinations were carried out in at least triplicate.

TCDD-induced MCF-7 cells = experiment: TCDD-induced MCF-7 cell line cytotoxicity assay, MTT; format: cell-based, human; conditions: for IC50: Homo sapiens, MCF7, MCF-7 cells induced with 10 nM TCDD for 24 hours, 96 hours, MTT; for Tumour Selectivity Differential Factor: MCF-7 IC50 versus TCDD-induced MCF-7 IC50 (Table 1); for more toxic to “tumour” cells than to “normal” cells: TCDD-induced MCF-7 versus MCF-7
From the text: as §1, §2
as §3, with “triplicate. […]” for “triplicate.”

[1] = test system: MDA-468 advanced breast cancer cell line; experiment: MDA-468 tumour cell line cytotoxicity assay; format: cell-based, human; conditions: for IC50: Homo sapiens, without TCDD; for Tumour Selectivity Differential Factor: IC50 MCF-10A divided by IC50 MDA-468 (Table 2)
Description: (§4) Cells were maintained in RPMI 1640 with Glutamax 1 (Life Technologies) with 10% (v/v) heat inactivated foetal calf serum (Hybrimax. Sigma), at 37° C., 5% CO2/95% air with 100% humidity and passaged using trypsin/EDTA. 1×10^3 cells were plated out in 100 μl medium per well of 96-well flat-bottomed plates (Fisher). […] The medium was then carefully aspirated and 100 μl fresh medium added. […] 50 μl MTT (Thiazol blue, Sigma) at 2 mg/ml in Dulbecco's phosphate buffered saline-A, was then added to each well for 3 hours. All medium was aspirated, then the formazan product generated by viable cells was solubilized with 150 μl DMSO. Plates were vortexed and the absorbance at 540 nm determined using a plate reader. […] All determinations were carried out in at least triplicate.
(§5) This cell culture based assay is performed using the two cell lines MDA-468 and MCF-10A. The MDA468 cell line is an advanced breast cancer cell line, whilst the MCF-10A cell line is a normal breast cell line.
(§6) This assay was performed using the two cell lines MDA-468 and MCF-10A according to the procedure described above for the MCF-7 assay, but without the addition of TCDD.
(§7) The tumour selectivity differential factor (TSDF) is calculated by dividing the IC50 obtained from the MCF-10A data by the IC50 obtained from the MDA-468 data.

[2] = test system: MCF-10A normal breast cell line; experiment: MCF-10A normal cell line cytotoxicity assay; format: cell-based; conditions: Homo sapiens, without TCDD
Description: as §4, §5, §6, §7

[3] = non-induced MCF-7 cells, 96 hours, MTT, read-out: MCF-7 Cells IC50
[4] = prodrug / hydroxylated metabolite illustration, read-out: IC50 in breast cancer MCF-7 cells

For COc1cc(OC)cc(C(=O)/C=C/c2ccc(OC(C)C)cc2)c1 [DMU-401, (E)-1-(4-isopropoxyphenyl)-3-(3,5-dimethoxyphenyl)prop-1-en-3-one], the IC50 (MCF-7 cells; [3]) was 6800 nM, the IC50 (TCDD-induced MCF-7 cells) was 800 nM and the “Tumour Selectivity Differential Factor” value (TCDD-induced MCF-7 cells) was 9.
With CCOc1ccc(/C=C/C(=O)c2cc(OC)c(OC)c(OC)c2)cc1 [DMU-190, (E)-1-(4-ethoxyphenyl)-3-(3,4,5-trimethoxyphenyl)prop-1-en-3-one] the IC50 (MCF-7 cells; [3]) was 750 nM, the IC50 (TCDD-induced MCF-7 cells) was 390 nM and the “Tumour Selectivity Differential Factor” value (TCDD-induced MCF-7 cells) was 2.
For CCCOc1ccc(/C=C/C(=O)c2cc(OC)cc(OC)c2)cc1O [DMU-185, (E)-1-(3-hydroxy-4-propoxyphenyl)-3-(3,5-dimethoxyphenyl)prop-1-en-3-one], the IC50 (MCF-7 cells; [3]) was 8000 nM, the IC50 (TCDD-induced MCF-7 cells) was 660 nM and the “Tumour Selectivity Differential Factor” value (TCDD-induced MCF-7 cells) was 12.
COc1cc(OC)cc(C(=O)/C=C/c2ccc(OC(C)(C)C)cc2)c1 [DMU-402, (E)-1-(4-tertbutoxyphenyl)-3-(3,5-dimethoxyphenyl)prop-1-en-3-one, reference compound] was tested, and the IC50 (MCF-7 cells; [3]) was 6200 nM, the IC50 (TCDD-induced MCF-7 cells) was 6200 nM and the “Tumour Selectivity Differential Factor” value (TCDD-induced MCF-7 cells) was 1.
For CCCOc1ccc(/C=C/C(=O)c2ccc(OC)c(OC)c2OC)cc1 [DMU-420, (E)-1-(4-propoxyphenyl)-3-(2,3,4-trimethoxyphenyl)prop-1-en-3-one], the IC50 (MCF-7 cells; [3]) was 20000 nM, the IC50 (TCDD-induced MCF-7 cells) was 3700 nM and the “Tumour Selectivity Differential Factor” value (TCDD-induced MCF-7 cells) was 5.
In the case of CCCOc1ccc(/C=C/C(=O)c2cc(OC)c(OC)c(OC)c2)cc1O [DMU-188, (E)-1-(3-hydroxy4-propoxyphenyl)-3-(3,4,5-trimethoxyphenyl)prop-1-en-3-one], the IC50 (MCF-7 cells; [3]) is reported as 4500 nM, the IC50 (TCDD-induced MCF-7 cells) is reported as 600 nM and the “Tumour Selectivity Differential Factor” value (TCDD-induced MCF-7 cells) is reported as 8.
CCCOc1ccc(/C=C(\C)C(=O)c2cc(OC)cc(OC)c2)cc1 [DMU-432, (E)-1-(4-propoxyphenyl)-2-methyl-3-(3,5-dimethoxyphenyl)prop-1-en-3-one] was tested, and the IC50 (MCF-7 cells; [3]) was 700 nM, the IC50 (TCDD-induced MCF-7 cells) was 80 nM and the “Tumour Selectivity Differential Factor” value (TCDD-induced MCF-7 cells) was 9.
With CCCCOc1ccc(/C=C/C(=O)c2cc(OC)c(OC)c(OC)c2)cc1O [DMU-189, (E)-1-(3-hydroxy-4-butoxyphenyl)-3-(3,4,5-trimethoxyphenyl)prop-1-en-3-one] the IC50 (MCF-7 cells; [3]) was 8300 nM, the IC50 (TCDD-induced MCF-7 cells) was 2500 nM and the “Tumour Selectivity Differential Factor” value (TCDD-induced MCF-7 cells) was 3.
For CCCCOc1ccc(/C=C/C(=O)c2cc(OC)cc(OC)c2)cc1O [DMU-186, (E)-1-(3-hydroxy-4-butoxyphenyl)-3-(3,5-dimethoxyphenyl)prop-1-en-3-one], the IC50 (MCF-7 cells; [3]) was 30000 nM, the IC50 (TCDD-induced MCF-7 cells) was 650 nM and the “Tumour Selectivity Differential Factor” value (TCDD-induced MCF-7 cells) was 46. The “more toxic to “tumour” cells than to “normal” cells” value (TCDD-induced MCF-7 cells) was 46 fold.
CCCCOc1ccc(/C=C/C(=O)c2cc(OC)c(OC)c(OC)c2)cc1 [DMU-192, (E)-1-(4-butoxyphenyl)-3-(3,4,5-trimethoxyphenyl)prop-1-en-3-one] was tested, and the IC50 (MCF-7 cells; [3]) was 20000 nM, the IC50 (TCDD-induced MCF-7 cells) was 1600 nM and the “Tumour Selectivity Differential Factor” value (TCDD-induced MCF-7 cells) was 12.
For CCOc1ccc(/C=C/C(=O)c2cc(OC)cc(OC)c2)cc1 [DMU-174, (E)-1-(4-ethoxyphenyl)-3-(3,5-dimethoxyphenyl)prop-1-en-3-one], the IC50 (MCF-7 cells; [3]) was 2000 nM, the IC50 (TCDD-induced MCF-7 cells) was 600 nM and the “Tumour Selectivity Differential Factor” value (TCDD-induced MCF-7 cells) was 3.
With COc1cccc2c1C(=O)c1c(O)c3c(c(O)c1C2=O)C[C@@](O)(C(=O)CO)C[C@@H]3O[C@H]1C[C@H](N)[C@H](O)[C@H](C)O1 [Doxorubicin, doxorubicin] the IC50 [1] was 3 nM, the “Tumour Selectivity Differential Factor” value [1] was 0.1 and the “more toxic to normal cells than to cancer cells” value ([1]; MCF-10A versus MDA-468) was 10 fold. It also gave an IC50 [2] of 0.3 nM.
With CN(Cc1cnc2nc(N)nc(N)c2n1)c1ccc(C(=O)N[C@@H](CCC(=O)O)C(=O)O)cc1 [Methotrexate, methotrexate] the IC50 [1] was 40 nM, the “Tumour Selectivity Differential Factor” value [1] was 1.5 and the IC50 [2] was 60 nM.
COc1ccc(/C=C/C(=O)c2cc(OC)cc(OC)c2)cc1 [(E)-1-(4-methoxyphenyl)-3-(3,5-dimethoxyphenyl)prop-1-en-3-one, reference compound] showed an IC50 (MCF-7 cells; [4]) of 690 nM.
In the case of CCCCOc1ccc(/C=C/C(=O)c2cc(OC)cc(OC)c2)cc1 [DMU-176, (E)-1-(4-butoxyphenyl)-3-(3,5-dimethoxyphenyl)prop-1-en-3-one], the IC50 (MCF-7 cells; [3]) is reported as 20000 nM, the IC50 (TCDD-induced MCF-7 cells) is reported as 1100 nM and the “Tumour Selectivity Differential Factor” value (TCDD-induced MCF-7 cells) is reported as 18.
Work on COc1cc(OC)cc(C(=O)/C=C/c2ccc(OC)c(O)c2)c1 [(E)-1-(3-Hydroxy-4-methoxyphenyl)-3-(3,5-dimethoxyphenyl)prop-1-en-3-one, reference compound] yielded an IC50 (MCF-7 cells; [4]) of 0.65 nM.
For CCCOc1ccc(/C=C/C(=O)c2ccc(OC)cc2OC)cc1 [DMU-408, (E)-1-(4-propoxyphenyl)-3-(2,4-dimethoxyphenyl)prop-1-en-3-one], the IC50 (MCF-7 cells; [3]) was 10000 nM, the IC50 (TCDD-induced MCF-7 cells) was 1300 nM and the “Tumour Selectivity Differential Factor” value (TCDD-induced MCF-7 cells) was 8.
CCCOc1ccc(/C=C/C(=O)c2cc(OC)ccc2OC)cc1 [DMU-424, (E)-1-(4-propoxyphenyl)-3-(2,5-dimethoxyphenyl)prop-1-en-3-one] was tested, and the IC50 (MCF-7 cells; [3]) was 12000 nM, the IC50 (TCDD-induced MCF-7 cells) was 2000 nM and the “Tumour Selectivity Differential Factor” value (TCDD-induced MCF-7 cells) was 6.
CCCOc1ccc(/C=C/C(=O)c2cc(OC)c(OC)c(OC)c2)cc1 [DMU-191, (E)-1-(4-propoxyphenyl)-3-(3,4,5-trimethoxyphenyl)prop-1-en-3-one] was tested, and the IC50 (MCF-7 cells; [3]) was 10000 nM, the IC50 (TCDD-induced MCF-7 cells) was 420 nM and the “Tumour Selectivity Differential Factor” value (TCDD-induced MCF-7 cells) was 24. For the same compound, the “more toxic to “tumour” cells than to “normal” cells” value (TCDD-induced MCF-7 cells) was 24 fold.
CCCOc1ccc(/C=C/C(=O)c2cccc(OC)c2)cc1 [DMU-417, (E)-1-(4-propoxyphenyl)-3-(3-methoxyphenyl)prop-1-en-3-one] was tested, and the IC50 (MCF-7 cells; [3]) was 28000 nM, the IC50 (TCDD-induced MCF-7 cells) was 10000 nM and the “Tumour Selectivity Differential Factor” value (TCDD-induced MCF-7 cells) was 3.
